Measurements from ChEMBL document CHEMBL1144311, “Synthesis of argentatin A derivatives as growth inhibitors of human cancer cell lines in vitro” (Bioorg Med Chem Lett, 2005).

Legend:
Type in all cases: functional, cell-based
U-251 = test: Inhibitory concentration towards human central nervous system glioblastoma cell line (U251) was determined
PC-3 [1] = test: Inhibitory concentration towards human prostatic adenocarcinoma cell line (PC-3) was determined
HCT-15 = test: Inhibitory concentration towards human colon adenocarcinoma cell line (HCT-15) was determined
K562 = test: Inhibitory concentration towards chronic myelogenous leukemic cell line (K562) was determined; conditions: Homo sapiens
PC-3 [2] = test: Inhibitory concentration against human prostatic adenocarcinoma cell line (PC-3) was determined

Compound	IC50 (U-251)	IC50 (PC-3 [1])	IC50 (HCT-15)	IC50 (K562)	IC50 (PC-3 [2])
CC(=O)O[C@H]1C[C@@]2(C)C3CCC4C(C)(C)C(=O)CC[C@@]45C[C@@]35CC[C@]2(C)C1[C@]1(C)CC[C@H](C(C)(C)OC(C)=O)O1 (stereo not given in full)	30.5 µM	22.7 µM	40.7 µM	68.4 µM	
CC1(C)C(=O)CC[C@]23C[C@]24CC[C@]2(C)C([C@]5(C)CCC(=O)O5)C(=O)C[C@@]2(C)C4CCC13 (stereo not given in full)	> 100 µM	> 100 µM	> 100 µM	> 100 µM	
CC(=O)OC1C[C@@]2(C)C3CCC4C(C)(C)C(=O)C=C[C@@]45C[C@@]35CC[C@]2(C)C1[C@]1(C)CC[C@H](C(C)(C)OC(C)=O)O1 (stereo not given in full)	58.4 µM	13.9 µM	> 100 µM	> 100 µM	
CC1(C)C(=O)[C@H](Br)C[C@]23C[C@]24CC[C@]2(C)C([C@]5(C)CC[C@H](C(C)(C)O)O5)[C@@H](O)C[C@@]2(C)C4CCC13 (stereo not given in full)	13.9 µM		3.23 µM	4.34 µM	11.1 µM
CC1(C)/C(=N/O)C=C[C@]23C[C@]24CC[C@]2(C)C([C@]5(C)CC[C@H](C(C)(C)O)O5)[C@@H](O)C[C@@]2(C)C4CCC13 (stereo not given in full)	26.8 µM	46.9 µM	35.8 µM	44.4 µM	
CC1(C)C(O)=C(C=O)C[C@]23C[C@]24CC[C@]2(C)C([C@]5(C)CC[C@H](C(C)(C)O)O5)C(O)C[C@@]2(C)C4CCC13 (stereo not given in full)	5.88 µM	5.69 µM	9.82 µM	14.4 µM	
CC1(C)c2oncc2C[C@]23C[C@]24CC[C@]2(C)C([C@]5(C)CC[C@H](C(C)(C)O)O5)[C@@H](O)C[C@@]2(C)C4CCC13 (stereo not given in full)	11.3 µM	13 µM	10.2 µM	11 µM	
CC1(C)C(=O)CC[C@]23C[C@]24CC[C@]2(C)C([C@]5(C)CC[C@H](C(C)(C)O)O5)[C@@H](O)C[C@@]2(C)C4CCC13 (stereo not given in full)	27.3 µM	20.2 µM	31.7 µM	38.6 µM	
CC(=O)O[C@H]1C[C@@]2(C)C3CCC4C(C)(C)/C(=N\O)CC[C@@]45C[C@@]35CC[C@]2(C)C1[C@]1(C)CC[C@H](C(C)(C)OC(C)=O)O1 (stereo not given in full)	21.4 µM	12.6 µM	28.9 µM	15.2 µM	
CC1(C)C(=O)C=C[C@]23C[C@]24CC[C@]2(C)C([C@]5(C)CC[C@H](C(C)(C)O)O5)[C@@H](O)C[C@@]2(C)C4CCC13 (stereo not given in full)	18.9 µM	15.3 µM	16.7 µM	16.8 µM	
